Measured values reported in US20240158447A1, “PEPTIDES FOR USE IN THE TREATMENT OR PREVENTION OF MYOCARDIAL DAMAGE” (THE UNIVERSITY OF WESTERN AUSTRALIA, priority 2020, published 2024).

Tests used:
[1] = test system: cTnI.2 wt myocytes; assay: Flavoprotein oxidation response to BayK(−), wt myocytes (Example 10); format: cell-based, mouse; conditions: 10 μM BayK(−)
Protocol: In this experiment wt myocytes were pre-exposed to 0.1, 0.5 or 1 μM for 20 min and assessed changes in flavoprotein oxidation and ψm.
Measurement of mitochondrial flavoprotein oxidation: Flavoprotein autofluorescence was used to measure flavoprotein oxidation based on previously described methods (Yaniv Y, Juhaszova M, Lyashkov A E, Spurgeon H A, Sollott S J, Lakatta E G. Ca2+-regulated-cAMP/PKA signaling in cardiac pacemaker cells links ATP supply to demand. J Mol Cell Cardiol. 2011; 51(5):740-8). […] Fluorescent images were acquired at 1 min intervals with 200 ms exposure. Metamorph 6.3 (Version 7.10.3) was used to quantify the signal by manually tracing myocytes. An equivalent region not containing cells was used as background and was subtracted. Fluorescence values recorded over 5 min before and 5 min after addition of drugs were averaged and alterations in fluorescent ratios reported as the percentage increase from the basal average. FCCP (50 μM) and NaCN (40 mM) was added at the end of each experiment to achieve a respective maximal and minimal fluorescence value indicative of maximal and minimal flavoprotein oxidation.
The ICA-L agonist BayK(−) was used to activate the channel and assess mitochondrial function. […] FIG. 10 presents the mean+/−SEM of flavoprotein fluorescence from cTnI.2 wt and cTnI-G2035 mutant myocytes before and after exposure to 10 μM BayK(−) in the presence of 1 μM AID(S)-TAT, and increasing concentrations of variant peptides as indicated. N=no. of animals, n=no. of cardiomyocytes. P values shown compared with AID(S)-TAT as determined by the Kruskal-Wallis test.

[2] = test system: wild type cardiac myocytes; assay: Intracellular superoxide (DHE) after H2O2 in cardiac myocytes; format: cell-based, mouse; conditions: 20 min incubation with 0.5-1 μM peptide; 30 μM H2O2 5 min; FIG. 3(b)
Protocol: Adult male C57BL/6J mice were anesthetized with pentobarbitone sodium (240 mg/kg) via intraperitoneal injection prior to excision of the heart. Ventricular myocytes were isolated. Mouse hearts were cannulated onto a Langendorff apparatus via the aorta and perfused retrogradely with Krebs-Henseleit Buffer (KHB) containing (in mM): 120 NaCl, 25 NaHCO3, 4.8 KCl, 2.2 MgSO4, 1.2 NaH2PO4 and 11 glucose (pH=7.35 with O2/CO2 at 37° C.) for 4 min at 37° C. Hearts were then perfused with KHB supplemented with 2.4 mg/ml collagenase B for 3 min, then 8 min perfusion in the presence of 40 μM calcium. Following perfusion, aorta and atria were removed, and ventricles gently teased apart and triturated to dissociate myocytes into suspension. […]
All in vitro studies were performed in freshly isolated myocytes at 37° C. […] Following a 20 min incubation with 0.5-1 μM AID(S)-TAT, AID-TAT, peptide 6 or peptide 7, fluorescent signal of individual myocytes was quantified using Metamorph 6.3 to measure signal intensity of manually traced cell regions. […]
Superoxide generation was assessed in cardiac myocytes using the fluorescent indicator dihydroethidium (DHE, 5 μM, 515-560 nm ex filter, 590 long pass em, Merck). […] Fluorescence was reported as percentage change in the slope of the signal measured at 20-40 min (treatment) over 1-10 min (pre-treatment).

## AIDP7-TAT: QQQEEDLKGYLDWITQAE with TAT sequence
[1]; 0.5 μM peptide 20 min, FIG. 10B
  BayK(−) induced increase in flavoprotein oxidation: effective
[1]; 1 μM peptide 20 min, FIG. 10A
  BayK(−) induced increase in flavoprotein oxidation: just as effective at attenuating the response in wt myocytes as the original AID-TAT
[2]
  H2O2 induced superoxide production (DHE): reduced the generation of superoxide in a statistically significant manner
